Data on 18 compounds can be found in patent US20050090522A1 (priority 2001, published 2005).

One data set has as its system HIV-1. Kind of data set: HIV-1 single-round infectious luciferase reporter virus (pseudotype) assay in HeLa CD4 CCR5 cells. It counts as cell-based. The method in brief:
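HeLa CD4 CCR5 cells (5×10^4/well, DMEM + 10% FBS) were treated with compound (final <10 μM) and infected with single-round luciferase reporter virus made in 293 cells, at MOI ~0.01. Luciferase was read 72 h post infection. EC50 came from 10-concentration percent-inhibition curves fitted to a four-parameter logistic model.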
For orientation: Reporter assays use an easily measured gene product as a stand-in for the process of interest.

The nature of data set [1]: Metabolic stability in pooled human liver microsomes (HLM). Particulars: pooled human liver microsomes, 3 μM drug; Low/Intermediate/High. On the procedure: Metabolic Stability Studies of compounds in Liver Microsomes. The metabolic stability of compounds were investigated in pooled liver microsomes from humans. The human liver microsomes were obtained from BD Gentest (Lot #16, Woburn, Mass.) with a protein concentration of 20 mg/ml and a total cytochrome P450 (CYP) concentration of 0.55 nmol/mg protein. A stock solution of drug was prepared in acetonitrile at 1 mM. […] The incubation media consisted of potassium phosphate buffer (0.1 M, pH 7.4), liver microsomes (final concentration 0.9 mg/ml), magnesium chloride (0.033 mM), and a NADPH-regenerating system. […] The test compound was pre-incubated in the media for 2 min. The reaction was initiated by the addition of the cofactors. The incubation was carried out at 37° C. for 10 min. The reaction was terminated by drawing an aliquot of 100 μL from the incubation and adding into 200 μL of acetonitrile containing a reference compound as an […] analytical standard. Following vortex-mixing and centrifugation, an aliquot of 10 μL of the supernatant was analyzed by LC/MS.
GUIDELINES can be used to categorized test substances as low, intermediate or highly cleared compounds.
(§1) For accuracy, the determined measure of viral inhibition is an EC50; but the minimum plasma concentrations which should be maintained in a patient is generally believed to be at least four or five fold higher. […] Lower is better. • 4) Estimating potential exposure in man by measuring parameters such as AUC and rate of clearance by oral and iv dosing in rats. High exposure and low clearance was desired.
The stability of compounds were also evaluated to determine metabolic stability when incubated in in vitro preparations of human liver microsomes (HLM). This is one commonly used predictive system for evaluating the potential for human metabolism and projecting clearance rates in man. Compounds with low clearance rates were most desireable.
In general terms: Liver microsomes are vesicles of endoplasmic reticulum, rich in cytochrome P450 enzymes.

A further data set deals with HeLa cells. As to the kind of experiment: Cytotoxicity assay in HeLa cells (MTT dye reduction, CC50). To be noted: cytotoxicity; Yes = CC50 above 100 uM, No = not. The method, then: • Virus production—Human embryonic Kidney cell line, 293, propagated in Dulbecco's Modified Eagle Medium (Life Technologies, Gaithersburg, Md.) containing 10% fetal Bovine serum (FBS, Sigma, St. Louis, Mo.). • Virus infection—Human epithelial cell line, HeLa, expressing the HIV-1 receptors CD4 and CCR^5 was propagated in Dulbecco's Modified Eagle Medium (Life Technologies, Gaithersburg, Md.) containing 10% fetal Bovine serum (FBS, Sigma, St. Louis, Mo.) and supplemented with 0.2 mg/mL Geneticin (Life Technologies, Gaithersburg, Md.) and 0.4 mg/mL Zeocin (Invitrogen, Carlsbad, Calif.). […] Transfections were performed using lipofectAMINE PLUS reagent as described by the manufacturer (Life Technologies, Gaithersburg, Md.). Experiment • 1. Compound was added to HeLa CD4 CCR5 cells plated in 96 well plates at a cell density of 5×10^4 cells per well in 100 μl Dulbecco's Modified Eagle Medium containing 10% fetal Bovine serum at a concentration of […]. • 2. 100 μl of single-round infectious reporter virus in Dulbecco's Modified Eagle Medium was then added to the plated cells and compound at an approximate multiplicity of infection (MOI) of 0.01, resulting in a final volume of 200 μl per well and a final compound concentration of <10 μM. • 3. Samples were harvested 72 h after infection. • 4. Viral infection was monitored by measuring luciferase expression from viral DNA in the infected cells using a luciferase reporter gene assay kit (Roche Molecular Biochemicals, Indianapolis, Ind.). Infected cell supernatants were removed and 50 μl of Dulbecco's Modified Eagle Medium (without phenol red) and 50 μl of luciferase assay reagent reconstituted as described by the manufacturer (Roche Molecular Biochemicals, Indianapolis, Ind.) was added per well. Luciferase activity was then quantified by measuring luminescence using a Wallac microbeta scintillation counter. • 5. […] An EC50 provides a method for comparing the antiviral potency of the compounds of this invention. The effective concentration for fifty percent inhibition (EC50) was calculated with the Microsoft Excel Xlfit curve fitting software. For each compound, curves were generated from percent inhibition calculated at 10 different concentrations by using a four paramenter logistic model (model 205). Table 1 is the key for the data in Tables 2-4. Cytoxicity assays were conducted with the same HeLa using methodology well known in the art.
as §1
In general terms: Tetrazolium dyes change colour on reduction, which living cells bring about.

Setting [2] is: Human immunodeficiency virus 1, HeLa-CD4/CCR5, read-out: EC50 Group from Table 1, Table 2-1, HeLa CD4 CCR5 cells, single-round luciferase reporter virus.
Where [3] appears, read: Human immunodeficiency virus 1, HeLa-CD4/CCR5, read-out: EC50 category, HIV-1 single-round reporter virus assay, category 1/2/3 per Table A1 key.
Setting [4] is: Human immunodeficiency virus 1, HeLa-CD4/CCR5, read-out: EC50 Group from TABLE 1, HeLa CD4 CCR5 cells, single-round infectious luciferase reporter virus.

Usually EC50 stands for the concentration needed to bring the measured effect to its halfway point.

Structures are written as SMILES. Read-outs that look alike come from different tables or passages of the source. Some results are limits rather than exact numbers.

Take `CCc1ccn(-c2ncc(OC)c3c(C(=O)C(=O)N4CCN(C(=O)c5ccccc5)[C@H](C)C4)c[nH]c23)n1` [Example 230, (R)-1-benzoyl-2-methyl-4-[(4-methoxy-7-(3-ethyl-pyrazol-1-yl)-6-azaindol-3-yl)-oxoacetyl]piperazine]: the EC50 in the data set on HIV-1 (setting [2]) was under 1000 nM; with HIV-1 (setting [3]), under 0.2 nM. The “HLM predicted human clearance class” value in data set [1] is reported as “Intermediate (0.101-0.200)”. For the same compound, the “CC50 > 100 uM” value in the data set on HeLa cells was “Yes”.
Consider `COc1cnc(-n2ccc(C)n2)c2[nH]cc(C(=O)C(=O)N3CCN(C(=O)c4ccccc4)[C@H](C)C3)c12` [Example 241, (R)-1-benzoyl-2-methyl-4-[(4-methoxy-7-(3-methyl-pyrazol-1-yl)-6-azaindol-3-yl)-oxoacetyl]piperazine], for which the EC50 with HIV-1 (setting [2]) is under 1000 nM; in the data set on HIV-1 (setting [3]) it was under 0.2 nM. Further, the “HLM predicted human clearance class” value in data set [1] was “Low (0-0.100)”. Further, the “CC50 > 100 uM” value in the data set on HeLa cells was “Yes”.
Take `COc1cnc(-n2ccc(N)n2)c2[nH]cc(C(=O)C(=O)N3CCN(C(=O)c4ccccc4)CC3)c12` [Example 251, 1-benzoyl-4-[(4-methoxy-7-(3-amino-pyrazol-1-yl)-6-azaindol-3-yl)-oxoacetyl]piperazine]: the EC50 in the data set on HIV-1 (setting [4]) was under 1000 nM; in the data set on HIV-1 (setting [3]), under 0.2 nM. The “HLM predicted human clearance class” value in data set [1] is “Low (0-0.100)”. Further, the “CC50 > 100 uM” value with HeLa cells is on record as “Yes”.
Consider `COc1cnc(-n2ccnn2)c2[nH]cc(C(=O)C(=O)N3CCN(C(=O)c4ccccc4)[C@H](C)C3)c12` [Example 255, (R)-1-benzoyl-2-methyl-4-[(4-methoxy-7-(1,2,3-triazol-1-yl)-6-azaindol-3-yl)-oxoacetyl]piperazine], for which the EC50 with HIV-1 (setting [2]) was under 1000 nM; in the data set on HIV-1 (setting [3]), under 0.2 nM. In addition, the “HLM predicted human clearance class” value in data set [1] is “Intermediate (0.101-0.200)”. The “CC50 > 100 uM” value in the data set with HeLa cells is “Yes”.
In the same order, the values of `COc1cnc(-n2cnc(N)n2)c2[nH]cc(C(=O)C(=O)N3CCN(C(=O)c4ccccc4)[C@H](C)C3)c12` [Example 258, (R)-1-benzoyl-2-methyl-4-[(4-methoxy-7-(3-amino-1,2,4-triazol-1-yl)-6-azaindol-3-yl)-oxoacetyl]piperazine] are under 1000 nM, under 0.2 nM, “Low (0-0.100)” and “Yes”.
Regarding `CCNC(=O)c1ncn(-c2ncc(OC)c3c(C(=O)C(=O)N4CCN(C(=O)c5ccccc5)CC4)c[nH]c23)n1` [Example 273, 1-benzoyl-4-[(4-methoxy-7-(3-ethylaminocarbonyl-1,2,4-triazol-1-yl)-6-azaindol-3-yl)-oxoacetyl]piperazine], the figures for the EC50 with HIV-1 (setting [4]) and in the data set with HIV-1 (setting [3]) were under 1000 nM and under 0.2 nM, respectively. In addition, the “HLM predicted human clearance class” value in data set [1] is listed as “Low (0-0.100)”. Further, the “CC50 > 100 uM” value in the data set on HeLa cells is reported as “Yes”.
In the same order, the values of `CNC(=O)c1ncn(-c2ncc(OC)c3c(C(=O)C(=O)N4CCN(C(=O)c5ccccc5)CC4)c[nH]c23)n1` [Example 274, 1-benzoyl-4-[(4-rnethoxy-7-(3-methylaminocarbonyl-1,2,4-triazol-1-yl)-6-azaindol-3-yl)-oxoacetyl]piperazine] are under 1000 nM, under 0.2 nM, “Low (0-0.100)” and “Yes”.
In the same order, the values of `COc1cnc(-n2cnc(C(=O)N(C)C)n2)c2[nH]cc(C(=O)C(=O)N3CCN(C(=O)c4ccccc4)CC3)c12` [Example 275, 1-benzoyl-4-[(4-methoxy-7-(3-dimethylaminocarbonyl-1,2,4-triazol-1-yl)-6-azaindol-3-yl)-oxoacetyl]piperazine] are under 1000 nM, under 0.2 nM, “Low (0-0.100)” and “Yes”.
For `O=C(C(=O)N1CCN(C(=O)c2ccccc2)CC1)c1c[nH]c2c(-c3c[nH]nn3)ncc(F)c12` [Example 299], the values for the EC50 in the data set with HIV-1 (setting [4]) and in the data set on HIV-1 (setting [3]) were under 1000 nM and under 0.2 nM, respectively. Besides, in data set [1], the “HLM predicted human clearance class” value is on record as “Low (0-0.100)”. For the same compound, the “CC50 > 100 uM” value with HeLa cells was “No”.
On the same counts, the results for `Cc1noc(-c2ncc(F)c3c(C(=O)C(=O)N4CCN(C(=O)c5ccccc5)CC4)c[nH]c23)n1` [Example 300] are under 1000 nM, 0.2 to 1000 nM, “Low (0-0.100)” and “Yes”.
On the same counts, the results for `Cc1ccnn1-c1ncc(F)c2c(C(=O)C(=O)N3CCN(C(=O)c4ccccc4)CC3)c[nH]c12` [Example 312] are under 1000 nM, 0.2 to 1000 nM, “Low (0-0.100)” and “Yes”.
In the same order, the values of `Nc1ncn(-c2ncc(F)c3c(C(=O)C(=O)N4CCN(C(=O)c5ccccc5)CC4)c[nH]c23)n1` [Example 313] are under 1000 nM, under 0.2 nM, “Low (0-0.100)” and “Yes”.
Turning to `C[C@@H]1CN(C(=O)C(=O)c2c[nH]c3c(-n4ccnn4)ncc(F)c23)CCN1C(=O)c1ccccc1` [Example 314], the results for the EC50 in the data set with HIV-1 (setting [2]) and with HIV-1 (setting [3]) were under 1000 nM and under 0.2 nM, respectively. For the same compound, the “HLM predicted human clearance class” value in data set [1] is listed as “Low (0-0.100)”. Further, in the data set on HeLa cells, the “CC50 > 100 uM” value is recorded as “Yes”.
For `Cc1ncn(-c2ncc(F)c3c(C(=O)C(=O)N4CCN(C(=O)c5ccccc5)[C@H](C)C4)c[nH]c23)n1` [Example 315], the EC50 in the data set with HIV-1 (setting [2]) was under 1000 nM; with HIV-1 (setting [3]), under 0.2 nM. Further, the “HLM predicted human clearance class” value in data set [1] is “Low (0-0.100)”. In the data set with HeLa cells, the “CC50 > 100 uM” value is reported as “Yes”.
Take `COc1cnc(-n2cnc(C)c2)c2[nH]cc(C(=O)C(=O)N3CCN(C(=O)c4ccccc4)CC3)c12` [Example 318]: the EC50 is under 1000 nM with HIV-1 (setting [4]) and 0.2 to 1000 nM in the data set with HIV-1 (setting [3]). The “HLM predicted human clearance class” value in data set [1] is given as “Low (0-0.100)”. Moreover, in the data set on HeLa cells, the “CC50 > 100 uM” value is on record as “Yes”.
Turning to `CCc1ncn(-c2ncc(OC)c3c(C(=O)C(=O)N4CCN(C(=O)c5ccccc5)CC4)c[nH]c23)n1` [Example 321], the EC50 with HIV-1 (setting [4]) was under 1000 nM; in the data set on HIV-1 (setting [3]), under 0.2 nM. The “HLM predicted human clearance class” value in data set [1] is listed as “Low (0-0.100)”. The “CC50 > 100 uM” value in the data set on HeLa cells is “Yes”.
As to `COCc1ncn(-c2ncc(OC)c3c(C(=O)C(=O)N4CCN(C(=O)c5ccccc5)[C@H](C)C4)c[nH]c23)n1` [Example 324], the EC50 was under 1000 nM in the data set on HIV-1 (setting [2]) and under 0.2 nM in the data set on HIV-1 (setting [3]). Besides, the “HLM predicted human clearance class” value in data set [1] is given as “Low (0-0.100)”. Also, in the data set on HeLa cells, the “CC50 > 100 uM” value was “Yes”.
Turning to `COc1cnc(-n2cc(C)nn2)c2[nH]cc(C(=O)C(=O)N3CCN(C(=O)c4ccccc4)CC3)c12` [Example 325], the EC50 in the data set with HIV-1 (setting [4]) is under 1000 nM; with HIV-1 (setting [3]), under 0.2 nM. The “HLM predicted human clearance class” value in data set [1] was “Low (0-0.100)”. Moreover, the “CC50 > 100 uM” value in the data set on HeLa cells is listed as “Yes”.
